Test results: ChEMBL document CHEMBL1201862, “PubChem BioAssay data set” (2004)
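Method: 48-hour compound exposure of cells in 96-well plates, five concentrations, linear interpolation of endpoints. The concentration for 50% growth inhibition is given as GI50.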 Active and inactive are the calls of the source. No stated cut-off is given here; in the data, active = GI50 up to about 1.1 µM and inactive = higher.

What was measured:
Assay in all cases: NCI tumour cell line growth inhibition, 48 h
[1] = tested on: SF-295
[2] = tested on: Malme-3M
[3] = tested on: M14
[4] = tested on: T47D
[5] = tested on: ACHN
[6] = tested on: SK-OV-3
[7] = tested on: SNB-19
[8] = tested on: OVCAR-8
[9] = tested on: HOP-92
[10] = tested on: 786-0
[11] = tested on: OVCAR-5
[12] = tested on: RXF 393
[13] = tested on: SW-620
[14] = tested on: HT-29
[15] = tested on: HCT-15
[16] = tested on: SF-539
[17] = tested on: A498
[18] = tested on: MDA-MB-231
[19] = tested on: TK-10
[20] = tested on: SN12C
[21] = tested on: COLO 205
[22] = tested on: HCT-116
[23] = tested on: NCI/ADR-RES
[24] = tested on: K562
[25] = tested on: OVCAR-3
[26] = tested on: SK-MEL-5
[27] = tested on: CAKI-1
[28] = tested on: SK-MEL-28
[29] = tested on: SF-268
[30] = tested on: U-251
[31] = tested on: UO-31
[32] = tested on: A549
[33] = tested on: MCF7
[34] = tested on: PC-3
[35] = tested on: UACC-62
[36] = tested on: NCI-H23
[37] = tested on: MDA-N
[38] = tested on: KM12
[39] = tested on: SK-MEL-2
[40] = tested on: MDA-MB-435
[41] = tested on: MOLT-4
[42] = tested on: NCI-H522
[43] = tested on: RPMI-8226
[44] = tested on: NCI-H460
[45] = tested on: OVCAR-4
[46] = tested on: DU-145
[47] = tested on: HOP-62
[48] = tested on: IGROV-1
[49] = tested on: SNB-75
[50] = tested on: NCI-H226
[51] = tested on: EKVX

Measured: GI50

COC(=O)C1C2C=CC(C2)N1S(=O)(=O)c1ccccc1 (centres undefined)
> 100 µM: [15]
inactive: [1] > 100 µM | [2] > 100 µM | [3] > 100 µM | [4] > 100 µM | [5] > 100 µM | [6] > 100 µM | [7] > 100 µM | [8] > 100 µM | [9] 33 µM | [10] > 100 µM | [11] > 100 µM | [12] > 100 µM | [13] > 100 µM | [14] > 100 µM | [16] > 100 µM | [17] > 100 µM | [18] > 100 µM | [19] > 100 µM | [20] > 100 µM | [21] > 100 µM | [22] > 100 µM | [23] > 100 µM | [24] > 100 µM | [25] > 100 µM | [26] > 100 µM | [27] > 100 µM | [28] > 100 µM | [29] > 100 µM | [30] > 100 µM | [31] > 100 µM | [32] > 100 µM | [33] > 100 µM | [34] > 100 µM | [35] > 100 µM | [36] > 100 µM | [37] > 100 µM | [38] > 100 µM | [39] > 100 µM | [40] > 100 µM | [41] > 100 µM | [42] > 100 µM | [43] > 100 µM | [44] > 100 µM | [45] > 100 µM | [46] > 100 µM | [47] > 100 µM

CC1(C)CC(=O)C(C(CC(c2ccccc2)c2cc3c(cc2O)OCO3)C2=C(O)CC(C)(C)CC2=O)=C(O)C1 (centres undefined)
> 10 µM: [15]
inactive: [1] > 10 µM | [3] > 10 µM | [48] > 10 µM | [5] > 10 µM | [7] > 10 µM | [8] > 10 µM | [9] > 10 µM | [11] > 10 µM | [12] > 10 µM | [13] > 10 µM | [14] > 10 µM | [16] > 10 µM | [17] > 10 µM | [18] > 10 µM | [19] > 10 µM | [20] > 10 µM | [21] > 10 µM | [22] > 10 µM | [23] > 10 µM | [25] > 10 µM | [26] > 10 µM | [27] > 10 µM | [29] > 10 µM | [30] > 10 µM | [31] > 10 µM | [32] > 10 µM | [34] > 10 µM | [36] > 10 µM | [37] > 10 µM | [38] > 10 µM | [49] > 10 µM | [40] > 10 µM | [50] > 10 µM | [51] > 10 µM | [45] > 10 µM | [46] > 10 µM
